This assay has as its target Bromodomain adjacent to zinc finger domain protein 2A (Homo sapiens) (UniProt Q9UIF9). The experiment in a line: Inhibition of His6-tagged BAZ2A (unknown origin) (1796 to 1899 residues) assessed as residual activity at 100 uM using H3K(Ac)14 substrate by AlphaScreen assay relative to control. Background: In Alpha technology, singlet oxygen from a donor bead excites a nearby acceptor bead.

Bromodomain adjacent to zinc finger domain protein 2A (Homo sapiens), sequence (Q9UIF9 whole entry, the tested form may be a part): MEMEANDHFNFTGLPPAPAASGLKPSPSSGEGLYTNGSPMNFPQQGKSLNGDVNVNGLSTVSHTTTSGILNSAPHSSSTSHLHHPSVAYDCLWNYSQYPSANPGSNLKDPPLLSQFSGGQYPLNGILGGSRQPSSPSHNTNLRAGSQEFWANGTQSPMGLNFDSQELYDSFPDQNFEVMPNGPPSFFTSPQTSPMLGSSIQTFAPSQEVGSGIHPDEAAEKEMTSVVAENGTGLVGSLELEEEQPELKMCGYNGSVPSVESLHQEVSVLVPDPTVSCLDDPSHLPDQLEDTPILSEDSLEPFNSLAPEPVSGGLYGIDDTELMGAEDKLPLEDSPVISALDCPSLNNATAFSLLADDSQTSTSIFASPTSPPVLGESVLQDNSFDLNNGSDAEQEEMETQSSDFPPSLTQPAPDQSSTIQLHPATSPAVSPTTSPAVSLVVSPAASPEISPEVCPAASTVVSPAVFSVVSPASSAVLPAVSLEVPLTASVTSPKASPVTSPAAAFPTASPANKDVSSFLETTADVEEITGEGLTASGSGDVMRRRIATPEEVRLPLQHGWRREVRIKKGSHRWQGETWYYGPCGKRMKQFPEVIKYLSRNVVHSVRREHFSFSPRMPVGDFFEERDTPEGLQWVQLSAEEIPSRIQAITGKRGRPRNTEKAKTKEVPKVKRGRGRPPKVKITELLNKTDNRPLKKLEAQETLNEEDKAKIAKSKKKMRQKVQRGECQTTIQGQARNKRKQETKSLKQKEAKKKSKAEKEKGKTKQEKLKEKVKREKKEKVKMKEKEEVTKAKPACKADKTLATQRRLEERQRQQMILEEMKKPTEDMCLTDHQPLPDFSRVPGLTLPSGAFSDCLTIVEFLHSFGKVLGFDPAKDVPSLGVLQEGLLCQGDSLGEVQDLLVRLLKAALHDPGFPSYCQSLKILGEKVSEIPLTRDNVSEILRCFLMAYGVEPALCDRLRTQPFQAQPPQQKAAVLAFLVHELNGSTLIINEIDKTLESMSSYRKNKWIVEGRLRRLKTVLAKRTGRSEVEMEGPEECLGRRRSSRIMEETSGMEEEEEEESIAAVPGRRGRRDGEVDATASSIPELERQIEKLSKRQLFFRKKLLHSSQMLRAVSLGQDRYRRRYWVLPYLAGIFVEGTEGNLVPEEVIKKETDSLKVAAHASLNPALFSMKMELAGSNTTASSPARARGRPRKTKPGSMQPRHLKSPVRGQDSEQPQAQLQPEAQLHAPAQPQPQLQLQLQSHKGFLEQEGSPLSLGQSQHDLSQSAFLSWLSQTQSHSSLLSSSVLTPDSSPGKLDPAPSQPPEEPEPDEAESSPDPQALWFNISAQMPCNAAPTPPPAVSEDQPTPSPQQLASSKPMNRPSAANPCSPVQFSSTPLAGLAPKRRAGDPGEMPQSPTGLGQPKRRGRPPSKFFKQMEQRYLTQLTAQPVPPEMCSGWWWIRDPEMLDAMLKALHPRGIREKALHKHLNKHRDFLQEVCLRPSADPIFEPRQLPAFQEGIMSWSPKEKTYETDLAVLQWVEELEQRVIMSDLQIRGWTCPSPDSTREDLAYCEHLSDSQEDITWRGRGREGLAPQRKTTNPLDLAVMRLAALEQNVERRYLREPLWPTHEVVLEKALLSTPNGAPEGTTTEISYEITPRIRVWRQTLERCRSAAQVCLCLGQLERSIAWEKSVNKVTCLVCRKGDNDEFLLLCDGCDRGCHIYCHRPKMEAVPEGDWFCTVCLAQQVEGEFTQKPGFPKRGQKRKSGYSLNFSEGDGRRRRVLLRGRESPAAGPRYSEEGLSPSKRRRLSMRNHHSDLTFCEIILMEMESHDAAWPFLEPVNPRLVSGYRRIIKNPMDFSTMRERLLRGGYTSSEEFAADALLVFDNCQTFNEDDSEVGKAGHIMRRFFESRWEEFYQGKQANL

For `CC(=O)c1c(C)[nH]c(-c2csc(N=C(N)N)n2)c1CCC(C)C`, the Activity was over 50%.

The record behind these values is ChEMBL document CHEMBL5143756, “Identification of a BAZ2A-Bromodomain Hit Compound by Fragment Growing” (ACS Med Chem Lett, 2022).
